Measured values reported in US8628961B2, “Small molecule antagonists of phosphatidylinositol-3,4,5-triphosphate (PIP3) and uses thereof” (Tufts University, priority 2010, dated 2014).

Key:
Akt PH domain [1] = biological target: T1, Akt PH domain (Homo sapiens (Human), UniProt P31749); assay: PH domain translocation assay (GFP fusion, plasma membrane); type: cell-based; details: PDGF stimulation
Protocol: Cells were transfected with the corresponding GFP-fusion vectors, serum starved overnight, and incubated with 100 μM PITs or PIT-1 is for 2 hr, followed by stimulation with 100 ng/ml PDGF or 250 ng/ml PMA for 5 min. The translocation was analyzed using fluorescent microscope and was quantitated by counting the number of cells with translocated PH domains in five random fields.
To begin characterizing cellular activity of PITs, a PH domain translocation assay was performed, measuring PIP3-induced association of GFP-fused PH domains with the plasma membrane. […] Varnai P et al. (1999) J Biol Chem 274:10983-9. Several PH-domain-containing proteins, which are known to bind PIP3 specifically and efficiently, were examined. […] Oikawa T et al. (2004) Nat Cell Biol 6:420-6.
Target sequence in this assay (P31749 5-108): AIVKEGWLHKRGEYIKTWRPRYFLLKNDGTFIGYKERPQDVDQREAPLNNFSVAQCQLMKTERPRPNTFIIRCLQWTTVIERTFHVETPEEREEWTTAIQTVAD

U87MG cells [2] = assay: Combination with Akt kinase inhibitors in U87MG cells (western blot, ATP assay); type: cell-based, human
Protocol: U87MG cells were treated with 100 μM PIT-1, or 10 μM Akt inhibitor VIII (Calbiochem) or Akt inhibitor (Calbiochem), or 100 μM PIT-1 together with 10 μM Akt inhibitor VIII or Akt inhibitor, for 12 hr and then phosphorylation events were evaluated by western blot.

Akt PH domain [3] = biological target: T1, Akt PH domain; assay: Fluorescence polarization (FP) PIP3/Akt PH domain binding assay; details: for IC50: 15 nM TMR-conjugated PIP3, PITs 6.25-200 μM, 30 min
Description: (§1) In order to identify compounds that disrupt the interaction between PIP3 and PH domains, a high-throughput fluorescence polarization (FP)-binding assay was developed using recombinant 1-123 amino acid N-terminal fragment of human Akt1 (also referred to herein simply as Akt), encompassing the PH domain (PH123 protein), and fluorescent […] PIP3 molecule. The amino acid sequence of human Akt1 is publicly available as, for example, GenBank Accession No. NP_001014432.1 (SEQ ID NO:1), and the corresponding DNA sequence is publicly available as, for example, GenBank Accession No. NM_001014432. Briefly, 5 μM recombinant GST fusion proteins containing 1-123 a.a. N-terminal fragment of human Akt1 (PH 123) or 100 nM 441-551 a.a. region of human PDK1 were incubated with 15 nM TMR-labeled PIP3, PIP2, or PIP5 in buffer containing 50 mM Tris-HCl (pH 7.5), 150 mM NaCl, and 5 mM b-ME for 15 min at room temperature in the dark. FP values were determined using Wallac Victor 3 plate reader. For the primary screen, 50,000 diverse small molecules from Harvard Institute of Chemistry and Cell Biology were screened (iccb.med.harvard.edu). Incubations were carried out for 1 hr. For secondary assays, PIT compounds were added at various concentrations (6.25, 12.5, 25, 50, 100, 150 and 200 μM), followed by a 30 min incubation. The inhibition rates were calculated as inhibition rate=[1−(compound-treated group/control group)]×100%, and IC50 value was determined using Origin6 software (MicroCal, LLC, Northampton, Mass.).
Target sequence in this assay (P31749 1-123): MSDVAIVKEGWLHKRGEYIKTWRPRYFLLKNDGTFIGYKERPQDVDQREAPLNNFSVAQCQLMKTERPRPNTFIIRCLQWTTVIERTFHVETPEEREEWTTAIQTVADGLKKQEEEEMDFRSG

PDK1 PH domain = PDK1 PH domain (Homo sapiens (Human), UniProt O15530); assay: FP PIP3/PDK1 PH domain binding assay; details: 15 nM TMR-conjugated PIP3, 100 nM PDK1 PH domain, 30 min
Chain of PDK1 PH domain (O15530 441-551): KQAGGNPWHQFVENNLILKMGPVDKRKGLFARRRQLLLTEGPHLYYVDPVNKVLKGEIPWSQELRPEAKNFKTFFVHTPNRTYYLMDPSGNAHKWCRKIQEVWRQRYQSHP
Description: as §1

GRP1 PH domain = GRP1 PH domain (Homo sapiens, UniProt O43739); assay: FP PIP3/GRP1 PH domain binding assay; details: 15 nM TMR-conjugated PIP3, 100 nM GRP1 PH domain, 30 min
U87MG cells [4] = assay: cells; type: cell-based; details: for IC50: Homo sapiens, U-87 MG, U87MG cells, 48 hr, ATP assay, read-out: Cell Viability IC50
Protocol: Based on the critical role of PIP3-dependent […] signaling in the regulation of cell survival, the effect of PIT-1 on the cancer cell viability was tested. Cancer cells were seeded into 96-well plates (white plates for ATP assay; black plates for fluorescent assay; clear plates for MTS assay) at the density of 5-10×10^3 cells per well in 100 μl of the appropriate media. Compounds were added at a series of concentrations and incubated for different times. For the ATP assay, a luminescence-based commercial kit (CellTiter-Glo, Promega, Madison, Wis.) was used. Thirty microliters of cell lysis/ATP detection reagent was added to each well, mixed for 10 min at room temperature, and the luminescence was measured using a Wallac Victor 3 plate reader (Perkin-Elmer, Wellesley, Mass.). For the MTS assay, a CellTiter 96 AQueous Non-Radioactive Cell Proliferation Assay Kit (Promega, Madison, Wis., USA) was used. Twenty microliters of the combined MTS/PMS solution was added into each well, incubated for 4 hr at 37° C., and the absorbance at 490 nm was measured using a Wallac Victor 3 plate reader. For the Sytox cell death assay, measuring loss of plasma membrane integrity, cells were incubated with 1 μM Sytox Green reagent (Molecular Probes, Eugene, Oreg.) for 30 min at 37° C. and the fluorescence intensity was measured using Wallac Victor 3 plate reader with excitation at 485 nm and emission at 545 nm. Next, 5 μl of 20% (v/v) Triton X-100 solution was added to each well and incubated for 1 hr at 37° C., and the signal was measured again. The ratio of values (percentage of dead cells in each well) before and after Triton X-100 treatment was calculated and normalized to the relevant controls not subjected to the cytotoxic stimuli. IC50 values were determined using Origin6 software (MicroCal, LLC, Northampton, Mass.).
To measure induction of cell death by PIT-1 derivatives, U87MG cells were incubated with PITs (1.56-300 μM) for 48 hr. Cell viability was determined using ATP assay.

PI3K-PDK1-Akt pathway = assay: PIP3-regulated phosphorylation events in U87MG cells; type: cell-based, human
Protocol: The effect of PIT-1 on PIP3-mediated signaling was examined in U87MG glioblastoma cells, which show elevated basal levels of PIP3 due to the loss of PTEN. Pore N et al. (2003) Cancer Res 63:236-41.

U87MG cells [5] = assay: Sensitization of U87MG cells to TRAIL, ATP assay; type: cell-based, human
Protocol: FIG. 10 is a bar graph depicting that PITs, as well as Akt inhibitor VIII, sensitize U87MG cells to killing by TRAIL. U87MG cells were incubated with 50 μM PIT-1, PIT-2, PIT-1i-1 or 10 μM Akt inhibitor VIII in the presence or absence of 10 ng/ml TRAIL for 48 hr, followed by cell viability analysis using ATP assay.
Upregulation of PI3K/Akt signaling is an important mechanism of chemoresistance of cancer cells. Blume-Jensen P et al. (2001) Nature 411:355-65; Osaki M et al. (2004) Apoptosis 9:667-76. […] Puduvalli V K et al. (2005) Apoptosis 10:233-43 TRAIL represents a particularly promising anti-cancer agent due to its intrinsic selectivity towards cancer cells which is associated with the expression of the decoy receptors by many (but not all) normal cells. Abe K et al. (2000) Ann NY Acad Sci 926:52-63. […] Oka N et al. (2005) Cancer Res 65:7546-53.

Row | Molecule | plasma membrane translocation of Akt PH domain (Akt PH domain [1]) | combination of Akt inhibitors VIII and X (U87MG cells [2]) | Akt potency and selectivity compared to PIT-1 (Akt PH domain [3]) | IC50 (Akt PH domain [3]) [µM] | IC50 (PDK1 PH domain) [µM] | IC50 (GRP1 PH domain) [µM] | IC50 (U87MG cells [4]) [µM] | melting point [°C] | cytotoxicity / reduction of cancer cell viability relative to other PITs (U87MG cells [4]) | PI3K-PDK1-Akt signaling in U87MG cells (PI3K-PDK1-Akt pathway) | sensitivity of U87MG cells to TRAIL alone (U87MG cells [5])
1 | CCN(CC)CCCCN1c2ccccc2Oc2ccc(Cl)cc21 [Akt inhibitor X] | Neither Akt inhibitor X nor allosteric inhibitor VIII blocked membrane translocation | no additive effect |  |  |  |  |  |  |  |  | 
2 | Cc1cc(C)cc(C(=O)NC(=S)Nc2c(O)cc(C)c(Cl)c2C)c1 [PIT-3, N-(3-Chloro-6-hydroxy-2,4-dimethylphenylcarbamothioyl)-3,5-dimethylbenzamide] |  |  | improved Akt potency and selectivity compared to PIT-1 | 17.5 ± 1.6 | 107 ± 3.9 | > 200 | 12.4 ± 0.9 | 185 to 186 |  |  | 
3 | Cc1cc(C)cc(C(=O)NC(=S)Nc2cc(C(F)(F)F)ccc2O)c1 [PIT-4, N-(2-Hydroxy-5-(trifluoromethyl)phenylcarbamothioyl)-3,5-dimethylbenzamide] |  |  | improved Akt potency and selectivity compared to PIT-1 | 22.6 ± 3 | > 200 | > 200 | 20.7 ± 3.3 | 208 to 209 |  |  | 
4 | Cc1cc(C)cc(C(=O)NC(=S)Nc2c(O)cc(C(F)(F)F)cc2C(F)(F)F)c1 [PIT-5, N-(2-Hydroxy-4,6-bis(trifluoromethyl)phenylcarbamothioyl)-3,5-dimethylbenzamide] |  |  | improved Akt potency and selectivity compared to PIT-1 | 20.8 ± 2.5 | > 200 | > 200 | 18.8 ± 1.7 | 167 to 168 |  |  | 
5 | Cc1cc(C)cc(C(=O)NC(=S)Nc2c(O)cc(C)c(Br)c2C)c1 [PIT-6, N-(3-Bromo-6-hydroxy-2,4-dimethylphenylcarbamothioyl)-3,5-dimethylbenzamide] |  |  | improved Akt potency and selectivity compared to PIT-1 | 18.1 ± 3.1 | > 200 | > 200 | 12.6 ± 2.1 | 164.5 to 166 |  |  | 
6 | Cc1cc(C)cc(C(=O)NC(=S)Nc2cc(-c3ccccc3)ccc2O)c1 [PIT-7, N-(4-Hydroxybiphenyl-3-ylcarbamothioyl)-3,5-dimethylbenzamide] |  |  |  | 13.4 ± 2.1 | 52.3 ± 2.3 | > 200 | 6.6 ± 0.3 |  | strongest activity | strongest activity | 
7 | TRAIL: Tumor necrosis factor (TNF)-related apoptosis-inducing ligand, 281 amino acid member of the TNF family of cytokines (protein, UniProt P50591 1-281, looked up) Tumor necrosis factor ligand …: MAMMEVQGGPSLGQTCVLIVIFTVLLQSLCVAVTYVYFTNELKQMQDKYSKSGIACFLKEDDSYWDPNDEESMNSPCWQVKWQLRQLVRKMILRTSEETISTVQEKQQNISPLVRERGPQRVAAHITGTRGRSNTLSSPNSKNEKALGRKINSWESSRSGHSFLSNLHLRNGELVIHEKGFYYIYSQTYFRFQEEIKENTKNDKQMVQYIYKYTSYPDPILLMKSARNSCWSKDAEYGLYSIYQGGIFELKENDRIFVSVTNEHLIDMDHEASFFGAFLVG |  |  |  |  |  |  |  |  |  |  | entirely resistant
